Source: PubChem BioAssay (NCI)
“And” between values parts separate entries of the source, which are not always exact repeats. Equal values may be shown once.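 Growth conditions: 96-well plates. Treatment: test compound, 48 hours, 5 concentrations. Analysis: linear interpolation between bracketing concentrations; unreached endpoints set to highest concentration. Here, GI50 denotes the concentration required for 50% inhibition of growth. Definition used: TGI = concentration required for complete inhibition of growth.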

Experiments:
Assay in all cases: growth of human tumour cells (NCI), 48 h
HOP-62 NSCLC = tested on: HOP-62 NSCLC
ACHN renal = tested on: ACHN renal
DU-145 prostate = tested on: DU-145 prostate
RXF 393 renal = tested on: RXF 393 renal
SR leukemia = tested on: SR leukemia
CCRF-CEM leukemia = tested on: CCRF-CEM leukemia
OVCAR-4 ovarian = tested on: OVCAR-4 ovarian
SF-268 CNS = tested on: SF-268 CNS
SK-MEL-28 melanoma = tested on: SK-MEL-28 melanoma
HT29 colon = tested on: HT29 colon

Row | Structure (SMILES) | GI50 (HOP-62 NSCLC) | TGI (HOP-62 NSCLC) | GI50 (ACHN renal) | TGI (ACHN renal) | GI50 (DU-145 prostate) | TGI (DU-145 prostate) | GI50 (RXF 393 renal) | TGI (RXF 393 renal) | GI50 (SR leukemia) | TGI (SR leukemia) | GI50 (CCRF-CEM leukemia) | TGI (CCRF-CEM leukemia) | GI50 (OVCAR-4 ovarian) | TGI (OVCAR-4 ovarian) | GI50 (SF-268 CNS) | TGI (SF-268 CNS) | GI50 (SK-MEL-28 melanoma) | TGI (SK-MEL-28 melanoma) | GI50 (HT29 colon) | TGI (HT29 colon)
1 | C=CC(=O)N[C@H]1CCOC[C@H]1Nc1ncc2cc(-c3c(Cl)c(OC)cc(OC)c3Cl)ccc2n1 | 43 µM | > 100 µM | 15.8 µM | > 100 µM | 24.4 µM | > 100 µM | 5.35 µM | 36.7 µM | 10.6 µM | > 100 µM | 21.9 µM | > 100 µM | 6.05 µM | > 100 µM | 16.2 µM | > 100 µM | 18.3 µM | 80.2 µM | 13.2 µM | > 100 µM
2 | C=CCC1(O)c2cccc(NCCO)c2C(=O)c2c(NCCO)cccc21 | > 100 µM | > 100 µM | > 100 µM | > 100 µM | > 100 µM | > 100 µM | > 100 µM | > 100 µM | > 100 µM | > 100 µM | > 100 µM | > 100 µM | > 100 µM | > 100 µM | > 100 µM | > 100 µM | > 100 µM | > 100 µM | > 100 µM | > 100 µM
3 | COc1cc(/C=C2\CCC(CN(C)C)C2=O)ccc1OC(=O)c1ccccc1 (centres undefined) | – | 23.5 µM | – | 28.7 µM | – | 29.8 µM | – | 15.4 µM | – | 6.97 µM | – | 9.77 µM | – | 25.5 µM | – | 27.5 µM | – | 29.2 µM | – | 26.6 µM
4 | COC(=O)[C@]12CC[C@@H](C)[C@H](C)[C@@H]1C1=CC[C@@H]3[C@@]4(C)C=C(O)C(=O)[C@@]5(C)COC(=C54)C[C@@]3(C)[C@]1(C)CC2 | 15.4 µM | 35 µM | 11.7 µM | 28.7 µM | 11.7 µM | 28.2 µM | 7.09 µM | 24.9 µM | 2.69 µM | 8.77 µM | 3.38 µM | 14.9 µM | 8.32 µM | 23.5 µM | 13.3 µM | 31.6 µM | 16.4 µM | 38.9 µM | 10.5 µM | 25.9 µM
5 | Cn1cc(-c2cnc3ccc4ccc(CS(=O)(=O)NCc5ccccn5)cc4c(=O)c3c2)cn1 | 17.6 µM | > 100 µM | 16.4 µM | > 100 µM | 33.7 µM | > 100 µM | 12.9 µM | 35.1 µM | 3.17 µM | > 100 µM | 9.08 µM | > 93.8 µM | 10.3 µM | 68.1 µM | 20.9 µM | > 100 µM | 15 µM | 35.4 µM | 15.1 µM | > 100 µM
6 | NS(=O)(=O)c1cccc(N=Cc2c(O)[nH]c3ccccc23)c1 | > 25 µM | > 25 µM | > 23.1 µM | > 25 µM | > 25 µM | > 25 µM | > 25 µM | > 25 µM | > 25 µM | > 25 µM | > 25 µM | > 25 µM | > 25 µM | > 25 µM | > 25 µM | > 25 µM | > 25 µM | > 25 µM | > 25 µM | > 25 µM
7 | c1ccc(-n2nnnc2-c2cccc3ccccc23)cc1 | 0.765 µM | > 100 µM | 0.84 µM | > 100 µM | 0.92 µM | 6.86 µM | 1.01 µM | > 20.1 µM | 0.438 µM | 74.4 µM | 0.447 µM | > 100 µM | 11.4 µM | > 100 µM | 0.833 µM | > 73.1 µM | – | > 100 µM | 0.357 µM | > 20.3 µM
8 | N#CC1=C(N)NC(=O)NC12Nc1ccccc1S2 (centres undefined) | 23.1 µM | 56.7 µM | 32.2 µM | > 100 µM | 12.5 µM | 35.3 µM | 16.9 µM | > 52.7 µM | 10.4 µM | > 100 µM | > 42 µM | > 67.6 µM | 43.4 µM | > 100 µM | 23.6 µM | 70.8 µM | 26.7 µM | > 70.3 µM | 36.7 µM | > 100 µM
9 | Cc1cc(Cc2cc(C)cc(C(C)(C)C)c2O)c(O)c(C(C)(C)C)c1 | 14.1 µM | 27.1 µM | 4.59 µM | 15.4 µM | 4.9 µM | 16.6 µM | 6.37 µM | 18.9 µM | 4.46 µM | 45.9 µM | 9.98 µM | > 100 µM | 11.6 µM | 23.9 µM | 5.06 µM | 17.3 µM | 12.9 µM | 25.6 µM | 4.58 µM | 15.6 µM
10 | Cc1cc(Nc2ncnc3ccc(NC4=NC(C)(C)CO4)cc23)ccc1Oc1ccn2ncnc2c1 | 17.6 µM and > 10 µM | 45.7 µM and > 10 µM | 4.48 µM and 9.46 µM | > 100 µM | 15.9 µM and > 10 µM | > 100 µM | 12.7 µM and > 10 µM | 28.9 µM and > 10 µM | 14.7 µM and > 10 µM | 43.8 µM and > 10 µM | 15.6 µM and > 10 µM | > 95.8 µM | 15.1 µM and > 10 µM | 99 µM and > 10 µM | 18.9 µM and > 10 µM | > 91.9 µM | 13.2 µM and > 10 µM | 29.3 µM and > 10 µM | 14.4 µM and > 10 µM | 38.7 µM and > 10 µM
11 | COc1ccc(Cl)cc1NC(=O)C(Br)C(Br)C(=O)O (centres undefined) | 4.79 µM | 21.3 µM | 17.2 µM | > 80.5 µM | 35.7 µM | > 100 µM | 18.8 µM | 40.9 µM | 3.43 µM | > 100 µM | 2.9 µM | > 100 µM | 6.36 µM | 60.6 µM | 4.33 µM | 16.8 µM | 7.69 µM | > 49.2 µM | 25.6 µM | > 68.3 µM
12 | O=C(O)c1ccc(N/C=C2\C(=O)c3ccccc3OC2O)cc1O (centres undefined) | 24.8 µg/mL | 63.7 µg/mL | 29 µg/mL | 84.6 µg/mL | 22.7 µg/mL | 65.6 µg/mL | 12.6 µg/mL | 34.5 µg/mL | 5.21 µg/mL | 41 µg/mL | 13.8 µg/mL | 59.6 µg/mL | 20.6 µg/mL | > 150 µg/mL | 21.8 µg/mL | 134 µg/mL | 25.1 µg/mL | 69.2 µg/mL | 29.7 µg/mL | 83.2 µg/mL
13 | CC(=O)O/N=C1/C(c2c(O)[nH]c3cc(Br)ccc23)=Nc2ccccc21 | 2.05 µM | 4.53 µM | 0.707 µM | 2.18 µM | 1.44 µM | 3.2 µM | 0.385 µM | 1.61 µM | 1.63 µM | 5.9 µM | 1.38 µM | 5.37 µM | 1.6 µM | 3.93 µM | 1.62 µM | 3.78 µM | 2.22 µM | 4.9 µM | 1.84 µM | 3.65 µM
14 | COc1ccc2c(c1)C(c1ccccc1Cl)=Nc1c(n[nH]c1C)N2 | > 25 µM | > 25 µM | > 20.5 µM | > 25 µM | > 25 µM | > 25 µM | 3.7 µM | > 25 µM | 10.5 µM | > 25 µM | > 25 µM | > 25 µM | > 25 µM | > 25 µM | 12.5 µM | > 25 µM | > 25 µM | > 25 µM | > 18.7 µM | > 25 µM
15 | Cc1cc(C)c(O)c(CN(C)Cc2cc(Cl)cc(Cl)c2O)c1 | 5.46 µM | 18.3 µM | 4.73 µM | 24 µM | 6.37 µM | 20.8 µM | 7.34 µM | 23.6 µM | 3.69 µM | 24.5 µM | 2.7 µM | 14.8 µM | 2.62 µM | 10.6 µM | 3.26 µM | 19.2 µM | 11.4 µM | 24 µM | 5.1 µM | 17.4 µM
